We go through five compounds from patent publication US11725037B2, “Peptide dual agonists of GIPR and GLP2R” (University of Copenhagen, priority 2017, dated 2023).

SMILES strings stand for the structures. Peptide text beside a SMILES is read from it. * marks the point of attachment. Palmitoyl = CCCCCCCCCCCCCCCC(=O)*

In one experiment the target is T1, human GLP-2 receptor (Homo sapiens, UniProt O95838).
T1 construct: host or cells: COS-7 (transient, calcium phosphate; pCMV-Script vector)
T1 sequence (O95838 1-553): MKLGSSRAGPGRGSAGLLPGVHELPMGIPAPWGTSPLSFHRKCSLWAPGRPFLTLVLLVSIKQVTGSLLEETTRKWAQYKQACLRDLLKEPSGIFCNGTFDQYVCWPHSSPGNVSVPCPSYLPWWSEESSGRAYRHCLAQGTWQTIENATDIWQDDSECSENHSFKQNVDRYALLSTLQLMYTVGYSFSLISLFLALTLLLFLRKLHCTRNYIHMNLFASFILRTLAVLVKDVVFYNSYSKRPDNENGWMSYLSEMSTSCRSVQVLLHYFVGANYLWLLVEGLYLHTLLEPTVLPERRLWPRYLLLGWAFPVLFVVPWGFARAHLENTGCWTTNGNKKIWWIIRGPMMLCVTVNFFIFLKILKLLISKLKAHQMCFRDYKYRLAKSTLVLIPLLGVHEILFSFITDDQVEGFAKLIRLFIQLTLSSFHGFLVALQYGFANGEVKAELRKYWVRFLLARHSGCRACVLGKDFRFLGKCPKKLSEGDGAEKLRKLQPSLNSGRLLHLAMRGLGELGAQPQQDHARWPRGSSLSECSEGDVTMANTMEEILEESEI
As to the kind of experiment: cAMP accumulation assay (HitHunter cAMP XS) in transiently transfected COS-7 cells expressing the human GLP-2 receptor. The experiment is classed as cell-based. To be noted: for Emax at 10 µM: COS-7, read-out: Emax (10 μM), GLP-2 receptor; for fold (fold change of native GLP-2), GLP-2 receptor: EC50 relative to native GLP-2; for EC50: logEC50, GLP-2 receptor, cAMP, COS-7. As for the experimental part: (§1) The day after, the cells were washed twice with Hepes buffered saline (HBS) buffer and incubated with HBS and 1 mM 3-isobutyl-1-methylxanthine (IBMX) for 30 min at 37° C. Ligands were added and incubated for 30 min at 37° C. The HitHunter™ cAMP XS assay (DiscoveRx) was carried out according to the manufacturer's instructions.

For a further experiment, the target named is T2, human GIP receptor (Homo sapiens, UniProt P48546).
T2 construct: host or cells: COS-7 (transient, calcium phosphate; pCMV-Script vector)
T2 sequence (P48546 22-466): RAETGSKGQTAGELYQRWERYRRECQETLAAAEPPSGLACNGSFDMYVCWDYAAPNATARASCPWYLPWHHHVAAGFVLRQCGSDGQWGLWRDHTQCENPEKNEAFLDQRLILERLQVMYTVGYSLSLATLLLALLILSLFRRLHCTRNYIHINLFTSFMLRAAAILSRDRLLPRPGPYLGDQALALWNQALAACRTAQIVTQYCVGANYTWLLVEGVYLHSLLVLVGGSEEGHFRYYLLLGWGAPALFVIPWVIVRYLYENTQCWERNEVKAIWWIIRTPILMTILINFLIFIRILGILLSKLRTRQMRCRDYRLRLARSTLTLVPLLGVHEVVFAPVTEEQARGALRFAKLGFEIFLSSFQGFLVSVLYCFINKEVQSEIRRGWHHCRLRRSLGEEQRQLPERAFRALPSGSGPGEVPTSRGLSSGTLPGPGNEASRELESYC
In words: cAMP accumulation assay (HitHunter cAMP XS) in transiently transfected COS-7 cells expressing the human GIP receptor. The experiment is classed as cell-based. To be noted: for Emax at 10 µM: COS-7, read-out: Emax (10 μM), GIP receptor; for fold (fold change of native GIP), GIP receptor: EC50 relative to native GIP; for EC50: logEC50, GIP receptor, log value, cAMP, COS-7. As for the experimental part: as §1

Take `CC[C@H](C)[C@H](NC(=O)[C@H](Cc1ccccc1)NC(=O)[C@H](CC(=O)O)NC(=O)[C@H](CCCNC(=N)N)NC(=O)[C@H](C)NC(=O)[C@H](C)NC(=O)[C@H](CC(C)C)NC(=O)[C@H](CC(N)=O)NC(=O)[C@H](CC(=O)O)NC(=O)[C@H](CC(C)C)NC(=O)[C@@H](NC(=O)[C@@H](NC(=O)[C@H](CO)NC(=O)[C@H](Cc1ccc(O)cc1)NC(=O)[C@H](CC(=O)O)NC(=O)[C@H](CO)NC(=O)[C@@H](NC(=O)[C@H](Cc1ccccc1)NC(=O)[C@@H](NC(=O)CNC(=O)[C@H](CC(=O)O)NC(=O)[C@H](C)NC(=O)[C@@H](N)Cc1c[nH]cn1)[C@@H](C)O)[C@@H](C)CC)[C@@H](C)O)[C@@H](C)CC)C(=O)N[C@@H](CC(N)=O)C(=O)N[C@@H](Cc1c[nH]c2ccccc12)C(=O)N[C@@H](CC(C)C)C(=O)N[C@H](C(=O)N[C@@H](CCC(N)=O)C(=O)N[C@H](C(=O)N[C@@H](CCCCN)C(=O)N[C@H](C(=O)N[C@H](C(=O)N[C@@H](CCCCN)C(=O)O)[C@@H](C)O)[C@@H](C)CC)[C@@H](C)O)[C@@H](C)CC` [Co-agonist 18]: the Emax at 10 µM on human GLP-2 receptor amounted to 94%. Also, on human GLP-2 receptor (Table 1), the “potency and efficacy on the GLP-2R compared with native GLP-2, in words” value was “almost the same potency and efficacy”; the “fold (fold change of native GLP-2), GLP-2 receptor” value is listed as 4.4 fold. Besides, at human GIP receptor, the Emax at 10 µM worked out at 89%. Besides, on human GIP receptor (Table 1), the “potency (and efficacy) on the GIP receptor compared with native GIP, in words” value is “almost the same potency and efficacy”; the “fold (fold change of native GIP), GIP receptor” value (“fold (fold change of native GIP)” for short) was 7.4 fold.
For the compound `CCCCCCCCCCCCCCCC(=O)NCCCC[C@H](NC(=O)[C@H](C)NC(=O)[C@H](C)NC(=O)[C@H](CC(C)C)NC(=O)[C@H](CC(N)=O)NC(=O)[C@H](CC(=O)O)NC(=O)[C@H](CC(C)C)NC(=O)[C@@H](NC(=O)[C@@H](NC(=O)[C@H](CO)NC(=O)[C@H](Cc1ccc(O)cc1)NC(=O)[C@H](CC(=O)O)NC(=O)[C@H](CO)NC(=O)[C@H](CO)NC(=O)[C@H](Cc1ccccc1)NC(=O)[C@@H](NC(=O)CNC(=O)[C@H](CC(=O)O)NC(=O)[C@H](C)NC(=O)[C@@H](N)Cc1c[nH]cn1)[C@@H](C)O)[C@@H](C)O)[C@@H](C)CC)C(=O)N[C@@H](CC(=O)O)C(=O)N[C@@H](Cc1ccccc1)C(=O)N[C@H](C(=O)N[C@@H](CC(N)=O)C(=O)N[C@@H](Cc1c[nH]c2ccccc12)C(=O)N[C@@H](CC(C)C)C(=O)N[C@H](C(=O)N[C@@H](CCC(N)=O)C(=O)N[C@H](C(=O)N[C@@H](CCCCN)C(=O)N[C@H](C(=O)N[C@H](C(=O)N[C@@H](CC(=O)O)C(=O)O)[C@@H](C)O)[C@@H](C)CC)[C@@H](C)O)[C@@H](C)CC)[C@@H](C)CC` [Co-agonist 21] (H-HADGTFSSDYSTILDNLAAK(Palmitoyl)DFINWLIQTKITD-OH; N-terminus and C-terminus assumed), the maximum response (Emax) at 10 µM at human GLP-2 receptor stood at 75%; at human GIP receptor it was 94%. Moreover, at human GLP-2 receptor (Table 2), the “fold (fold change of native GLP-2), GLP-2 receptor” value is on record as 5.0 fold. On human GIP receptor (Table 2), the “fold (fold change of native GIP)” value was found to be 381 fold. The response at human GIP receptor (Table 2) was half-maximal at 33.9 nM (EC50).
With `CCCCCCCCCCCCCCCC(=O)N[C@@H](Cc1c[nH]cn1)C(=O)N[C@@H](C)C(=O)N[C@@H](CC(=O)O)C(=O)NCC(=O)N[C@H](C(=O)N[C@@H](Cc1ccccc1)C(=O)N[C@@H](CO)C(=O)N[C@@H](CO)C(=O)N[C@@H](CC(=O)O)C(=O)N[C@@H](Cc1ccc(O)cc1)C(=O)N[C@@H](CO)C(=O)N[C@H](C(=O)N[C@H](C(=O)N[C@@H](CC(C)C)C(=O)N[C@@H](CC(=O)O)C(=O)N[C@@H](CC(N)=O)C(=O)N[C@@H](CC(C)C)C(=O)N[C@@H](C)C(=O)N[C@@H](C)C(=O)N[C@@H](CCCNC(=N)N)C(=O)N[C@@H](CC(=O)O)C(=O)N[C@@H](Cc1ccccc1)C(=O)N[C@H](C(=O)N[C@@H](CC(N)=O)C(=O)N[C@@H](Cc1c[nH]c2ccccc12)C(=O)N[C@@H](CC(C)C)C(=O)N[C@H](C(=O)N[C@@H](CCC(N)=O)C(=O)N[C@H](C(=O)N[C@@H](CCCCN)C(=O)N[C@H](C(=O)N[C@H](C(=O)N[C@@H](CC(=O)O)C(=O)O)[C@@H](C)O)[C@@H](C)CC)[C@@H](C)O)[C@@H](C)CC)[C@@H](C)CC)[C@@H](C)CC)[C@@H](C)O)[C@@H](C)O` [Co-agonist 22] (Palmitoyl-HADGTFSSDYSTILDNLAARDFINWLIQTKITD-OH), the Emax at 10 µM at human GLP-2 receptor amounted to 72%; at human GIP receptor, 100%. The concentration for a half-maximal effect (EC50) is 1.32 nM at human GLP-2 receptor (Table 2) and 0.407 nM at human GIP receptor (Table 2).
In the case of `CCCCCCCCCCCCCCCC(=O)NCCCC[C@H](NC(=O)[C@@H](NC(=O)[C@H](CCC(N)=O)NC(=O)[C@@H](NC(=O)[C@H](CC(C)C)NC(=O)[C@H](Cc1c[nH]c2ccccc12)NC(=O)[C@H](CC(N)=O)NC(=O)[C@@H](NC(=O)[C@H](Cc1ccccc1)NC(=O)[C@H](CC(=O)O)NC(=O)[C@H](CCCNC(=N)N)NC(=O)[C@H](C)NC(=O)[C@H](C)NC(=O)[C@H](CC(C)C)NC(=O)[C@H](CC(N)=O)NC(=O)[C@H](CC(=O)O)NC(=O)[C@H](CC(C)C)NC(=O)[C@@H](NC(=O)[C@@H](NC(=O)[C@H](CO)NC(=O)[C@H](Cc1ccc(O)cc1)NC(=O)[C@H](CC(=O)O)NC(=O)[C@H](CO)NC(=O)[C@H](CO)NC(=O)[C@H](Cc1ccccc1)NC(=O)[C@@H](NC(=O)CNC(=O)[C@H](CC(=O)O)NC(=O)[C@H](C)NC(=O)[C@@H](N)Cc1c[nH]cn1)[C@@H](C)O)[C@@H](C)O)[C@@H](C)CC)[C@@H](C)CC)[C@@H](C)CC)[C@@H](C)O)C(=O)N[C@H](C(=O)N[C@H](C(=O)N[C@@H](CC(=O)O)C(=O)O)[C@@H](C)O)[C@@H](C)CC` [Co-agonist 23] (H-HADGTFSSDYSTILDNLAARDFINWLIQTK(Palmitoyl)ITD-OH; N-terminus and C-terminus assumed), the Emax at 10 µM at human GLP-2 receptor worked out at 57%. In addition, at human GLP-2 receptor (Table 2), the “fold (fold change of native GLP-2), GLP-2 receptor” value is recorded as 1.2 fold and the 50% effective concentration (EC50) was 1.41 nM. For the same compound, the Emax at 10 µM on human GIP receptor was found to be 81%. The “fold (fold change of native GIP)” value on human GIP receptor (Table 2) was found to be 8.5 fold.
As to `CC[C@H](C)[C@H](NC(=O)[C@H](Cc1ccccc1)NC(=O)[C@H](CC(=O)O)NC(=O)[C@H](CCCCN)NC(=O)[C@H](C)NC(=O)[C@H](C)NC(=O)[C@H](CC(C)C)NC(=O)[C@H](CC(N)=O)NC(=O)[C@H](CC(=O)O)NC(=O)[C@H](CC(C)C)NC(=O)[C@@H](NC(=O)[C@@H](NC(=O)[C@H](CO)NC(=O)[C@H](Cc1ccc(O)cc1)NC(=O)[C@H](CC(=O)O)NC(=O)[C@H](CO)NC(=O)[C@@H](NC(=O)[C@H](Cc1ccccc1)NC(=O)[C@@H](NC(=O)CNC(=O)[C@H](CC(=O)O)NC(=O)[C@H](C)NC(=O)[C@@H](N)Cc1c[nH]cn1)[C@@H](C)O)[C@@H](C)CC)[C@@H](C)O)[C@@H](C)CC)C(=O)N[C@@H](CC(N)=O)C(=O)N[C@@H](Cc1c[nH]c2ccccc12)C(=O)N[C@@H](CC(C)C)C(=O)N[C@H](C(=O)N[C@@H](CCC(N)=O)C(=O)N[C@H](C(=O)N[C@@H](CCCCN)C(=O)N[C@H](C(=O)N[C@H](C(=O)N[C@@H](CCCCN)C(=O)O)[C@@H](C)O)[C@@H](C)CC)[C@@H](C)O)[C@@H](C)CC` [Co-agonist 28], the Emax at 10 µM at human GLP-2 receptor amounted to 112%; at human GIP receptor it was 100%. Moreover, the EC50 at human GIP receptor (Table 2) is 0.2 nM.
